{
  "source": "patent US20190351076A1",
  "about": "“TUMOR CELL XENOGRAFT MODEL IN ZEBRAFISH, AND METHODS OF CONSTRUCTING AND USING THE SAME” (NANJING EMORY BIOTECHNOLOGY CO., LTD., priority 2017, published 2019)",
  "key": {"SGC-7901": {"tested_on": "SGC-7901", "assay": "Human gastric cancer cell line xenograft model in zebrafish (SGC-7901)", "format": "in vivo", "details": "SGC-7901 xenograft; 4000 μM and 400 μM soak for three days; day 7 after injection", "protocol": "(§1) 4000 μM and 400 μM5-FU were used to soak the zebrafish embryos injected with gastric cancer cell lines (SGC-7901 and AGS) (constructed as in Example 1) for three consecutive days, and 0.1% DMSO was used as a solvent control.\n(§2) The red cells were photographed under a fluorescence microscope, and the red fluorescence intensity was quantified by Image Pro Plus software to calculate the anti-tumor effect of 5-FU by a formula: Tumor inhibition rate of the drug=(the fluorescence intensity of the treatment group/the fluorescence intensity of the control group)*100% (see FIG. 4)."}, "gastric cancer": {"tested_on": "gastric cancer", "assay": "Clinical outcome of 5-FU treatment in the gastric cancer patients", "format": "in vivo, human"}, "[1]": {"tested_on": "patient-derived primary gastric cancer cells", "assay": "Patient-derived gastric cancer cell xenograft model in zebrafish, fluorescence quantification", "format": "in vivo, human", "details": "4000 μM and 400 μM soak for three days, day 7 after the injection", "protocol": "(§3) The patient-derived clinical tissue biopsy that was a surgical specimen of gastric cancer was placed in physiological saline. The blood clot, necrotic tissue, fat and connective tissues on the surface of the tumor tissue were removed under aseptic conditions. The tissue was cut by an ophthalmic scissor after sterilization, and washed 2 times with sterile phosphate buffer (pH 7.4). A small amount of phosphate buffer was added, and the tissue was repeatedly cut with an ophthalmic scissor until the tissue became a paste and was about 1 mm^3. 0.25% trypsin was added and the tissue was digested at 37° C. for 10 minutes. […] The cells were re-suspended in RPMI-1640 medium containing 10% FBS (fetal calf serum).\n(§4) The primary cells obtained by dissociation were stained with CM-Dil, where the final dye concentration was 2 μg/ml, and the staining time was 1 hour. The dye was removed by centrifugation, and the cells were washed with a phosphate buffer and re-suspended to a cell density of 1×10^4/μl.\n(§5) The stained cells were filled into a microinjector. […]\nWithin 7 days after the injection, the growth, metastasis and spread of the cells derived from the patient in the zebrafish were observed under a fluorescence microscopy and photographed. […]"}, "AGS": {"tested_on": "AGS", "assay": "Human gastric cancer cell line xenograft model in zebrafish (AGS)", "format": "in vivo", "details": "4000 μM and 400 μM soak for three days, day 7 after injection", "protocol": "as §1, §2"}, "zebrafish embryos": {"tested_on": "zebrafish embryos", "details": "zebrafish embryos two days after fertilization, treated for 3 days", "protocol": "For the quantitative analysis, the antitumor effect is calculated according to the following formula: the tumor inhibition rate of the drug=(the fluorescence intensity of the treatment group/the fluorescence intensity of the control group)*100%.\n1. Four groups, each group having four randomly selected zebrafish embryos that were two days old after fertilization, were placed in a solution of curcumin containing 0.1% DMSO. The curcumin concentrations were 10 μM, 30 μM, 50 μM, and 70 μM, respectively, and the treatment was continued for 3 days."}, "A549": {"tested_on": "A549", "assay": "Human lung cancer cell line xenograft model in zebrafish (A549)", "format": "in vivo", "details": "50 μM and 5 μM soak for three days, day 7 after injection"}, "[2]": {"tested_on": "patient-derived primary lung cancer cells", "assay": "Patient-derived lung cancer cell xenograft model in zebrafish, fluorescence quantification", "format": "in vivo, human", "details": "50-μM and 5-μM soak for three days, day 7 after the injection", "protocol": "as §3, with “lung” for “gastric”, “mm^3 in size.” for “mm^3.”, “resuspended” for “re-suspended”\nas §4, §5\nWithin 4 days after the injection, the growth, metastasis and spread of the cells derived from the patient in the zebrafish were observed under a fluorescence microscopy and photographed. […]"}, "lung cancer": {"tested_on": "lung cancer", "assay": "Clinical outcome of drug treatment in the lung cancer patients", "format": "in vivo, human"}},
  "data": [
    {"smiles": "O=c1[nH]cc(F)c(=O)[nH]1", "note": "[5-FU, 5-fluorouracil]", "values": [
      {"measurement": "sensitivity of gastric cancer cell line to 5-FU", "setting": "SGC-7901", "value": "sensitive"},
      {"measurement": "clinical effect of 5-FU in the treatment of the patients", "setting": "gastric cancer; #1 and #2 patients with gastric cancer", "value": "not significant"},
      {"measurement": "clinical symptoms after treatment with 5-FU", "setting": "gastric cancer; #3 and #4 patients with gastric cancer", "value": "significantly improved"},
      {"measurement": "sensitivity of patient-derived gastric cancer cells to 5-FU (tumor inhibition effect)", "setting": "[1]; #1 and #2 patients", "value": "not sensitive"},
      {"measurement": "sensitivity of patient-derived gastric cancer cells to 5-FU (tumor proliferation inhibition)", "setting": "[1]; #3 and #4 patients", "value": "sensitive"},
      {"measurement": "sensitivity of gastric cancer cell line to 5-FU", "setting": "AGS", "value": "sensitive"}
    ]},
    {"smiles": "COc1cc(/C=C/C(=O)CC(=O)/C=C/c2ccc(O)c(OC)c2)ccc1O", "note": "[curcumin]", "values": [
      {"measurement": "highest concentration within the safe range for embryos", "setting": "zebrafish embryos", "value": 50, "unit": "µM"}
    ]},
    {"smiles": "CC(=O)O[C@@]12CO[C@@H]1C[C@H](O)[C@@]1(C)C(=O)[C@H](O)C3=C(C)[C@@H](OC(=O)[C@H](O)[C@@H](NC(=O)OC(C)(C)C)c4ccccc4)C[C@@](O)([C@@H](OC(=O)c4ccccc4)[C@H]21)C3(C)C", "note": "[docetaxel]", "values": [
      {"measurement": "highest concentration within the safe range for embryos", "setting": "zebrafish embryos", "value": 10, "unit": "µM"}
    ]},
    {"smiles": "COc1cc2ncnc(Nc3ccc(F)c(Cl)c3)c2cc1OCCCN1CCOCC1", "note": "[gefitinib]", "values": [
      {"measurement": "sensitivity of lung cancer cell line to gefitinib", "setting": "A549", "value": "sensitive"},
      {"measurement": "sensitivity of patient-derived lung cancer cells to gefitinib (tumor inhibition effect)", "setting": "[2]; *5 and *6 patients", "value": "sensitive"},
      {"measurement": "sensitivity of patient-derived lung cancer cells to gefitinib", "setting": "[2]; *7 and *8 patients", "value": "not sensitive"},
      {"measurement": "clinical effect of gefitinib in the treatment of the patients", "setting": "lung cancer; *5 and *6 patients with lung cancer", "value": "significant"},
      {"measurement": "clinical symptoms after treatment", "setting": "lung cancer; *7 and *8 patients with lung cancer", "value": "not significantly improved"},
      {"measurement": "highest concentration within the safe range for embryos", "setting": "zebrafish embryos", "value": 50, "unit": "µM"}
    ]}
  ]
}
